Data on 25 molecules can be found in patent US9018208B2, “Heterocycles as potassium channel modulators” (Icagen Inc., priority 2007, dated 2015).

By EC50 is commonly meant the concentration giving half of the maximal effect. Broadly, the ED50 is the dose that gives a 50% effect, or the effect in half of the subjects. A higher ED50 goes with a need for a large dose.

Like-named read-outs stand apart in the source and are kept apart here.

Assay [1] has as its system electroshock seizure, Male Wistar rats. Nature of the assay: In vivo rat assay for anti-convulsant activity (rat MES, electroshock seizure). The conditions noted are these: for Rat MES activity: single dose screening, typically 10 mg/kg, animals protected from hind limb extension; for ED50: Rattus norvegicus, po. The procedure:
Male Wistar rats were housed 4 per cage on a regular light/dark cycle (lights on 0600-1800) for one week prior to anti-convulsant testing. The apparatus used to induce electroshock seizure was obtained from Walhquist Instrument Co., Salt Lake City, Utah. The shock level was set at 150 mA and the duration at 0.2 seconds. A drop of 1% proparacaine solution was placed in each eye of a rat, the electrodes were placed over the eyes, and the shock was administered. Latency to hind limb extension was measured to the nearest 0.1 second.
The KCNQ opener was homogenized in either 0.5% carboxymethylcellulose in water or 0.5% methylcellulose in water) and administered orally through a steel 18-gauge rat gavage tube in a volume of 2 mL/kg of body weight. In the single dose screening assay, latency to seizure for the vehicle group and the KCNQ opener group were compared using t-test. Typically a dose of 10 mg/kg of the opener is used. However, openers can be run n a dose-response experiment where doses of 1, 3, 10 and 30 mg/Kg are used.
In the single dose screening assay, latency to seizure for the vehicle and the 10 mg/kg groups were compared using t-test. Latencies to seizure in the dose response studies were submitted to analysis of variance and all dose groups were compared to vehicle using Dunnett's method (JMP© ver 5.1, SAS). In all cases an effect was considered significant if p≦0.05.

For assay [2], the system named is SH-SY5Y M-currents (KCNQ2, KCNQ3 and KCNQ5). Put plainly: SH-SY5Y native cell line FLIPR assay (voltage-sensitive dye DiBAC). In kind it is cell-based, mouse neuroblastoma, rat glioma hybrid cell line. The conditions noted are these: SH-SY5Y native cell line, read-out: SH-SY5Y EC50. An outline of the steps: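 Response is peak DiBAC fluorescence change, normalised to the maximum from a positive control agent, sampled every 30 s over 25 min. Before compound addition, SH-SY5Y cells differentiated with PGE1 plus isomethylbutylxanthine were dye-loaded for 1 h in EBSS with […] DiBAC.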

For `O=C(Cc1ccccc1)Nc1nc2ccc(C(F)(F)F)cn2c1C1CCCCC1` [Compound 38, N-(3-cyclohexyl-6-(trifluoromethyl)imidazo[1,2-a]pyridin-2-yl)-2-phenylacetamide], the “Rat MES activity” value in assay [1] (oral) is “++ (++ 4-6 animals protected)”. The concentration for a half-maximal effect (EC50) in assay [2] (FLIPR assay, Table 1) was below 0.5 µM.
Take `CC1(CC(=O)Nc2nc3ccc(F)cn3c2-c2ccc(C(F)(F)F)cc2)CCCC1` [Compound 180, N-(6-fluoro-3-(4-(trifluoromethyl)phenyl)imidazo[1,2-a]pyridin-2-yl)-2-(1-methylcyclopentyl)acetamide]: the “Rat MES activity” value in assay [1] (oral) is “++ (++ 4-6 animals protected)”. The EC50 in assay [2] (FLIPR assay, Table 2) was below 0.5 µM.
Consider `CC(C)(C(=O)Nc1nc2ccc(C(F)(F)F)nn2c1C1CCC1)C(F)(F)F` [Compound 437, N-(3-cyclobutyl-6-(trifluoromethyl)imidazo[1,2-b]pyridazin-2-yl)-3,3,3-trifluoro-2,2-dimethylpropanamide], for which the “Rat MES activity” value in assay [1] (oral) is reported as “+++ (+++ 7-8 animals protected)”. Moreover, the EC50 in assay [2] (FLIPR assay (Table 6)) lay within 0.5 to 3 µM.
As to `CC(CC(=O)Nc1nc2ccc(C(F)(F)F)cn2c1CC(C)(C)C)C(F)(F)F` (stereo not drawn) [Compound 23, 4,4,4-trifluoro-3-methyl-N-(3-neopentyl-6-(trifluoromethyl)imidazoyl)butanamide], the “Rat MES activity” value in assay [1] (oral) is “+ (+ 2-3 animals protected)”. Also, the half-maximal effective concentration (EC50) in assay [2] (FLIPR assay, Table 1) is below 0.5 µM.
`CC(C)(CC(=O)Nc1nc2ccc(C(F)(F)F)nn2c1C1CCC1)C(F)(F)F` [Compound 439, N-(3-cyclobutyl-6-(trifluoromethyl)imidazo[1,2-b]pyridazin-2-yl)-4,4,4-trifluoro-3,3-dimethylbutanamide] showed an ED50 in assay [1] (rat MES dose-response) of 0.47 mg/kg. Further, the “Rat MES activity” value in assay [1] (oral) was “+++ (+++ 7-8 animals protected)”. The EC50 in assay [2] (FLIPR assay (Table 6)) is below 0.5 µM.
`O=C(Nc1nc2ccc(C(F)(F)F)cn2c1C1CCCC1)c1ccc(F)c(F)c1` [Compound 430, N-(3-cyclopentyl-6-(trifluoromethyl)imidazo[1,2-a]pyridin-2-yl)-3,4-difluorobenzamide] yielded an ED50 in assay [1] (rat MES dose-response) of 2.3 mg/kg. For the same molecule, in assay [1] (oral), the “Rat MES activity” value is “++ (++ 4-6 animals protected)”. In assay [2] (FLIPR assay (Table 6)), the EC50 fell in the range of 0.5 to 3 µM.
For `CC(C)(C(=O)Nc1nc2ccc(C(F)(F)F)cn2c1C1CC1)C(F)(F)F` [Compound 429, N-(3-cyclopropyl-6-(trifluoromethyl)imidazo[1,2-a]pyridin-2-yl)-3,3,3-trifluoro-2,2-dimethylpropanamide] the same measures were 3.4 mg/kg, “+++ (+++ 7-8 animals protected)” and 0.5 to 3 µM.
Consider `CC(C)(C)CC(=O)Nc1nc2ccc(F)cn2c1-c1ccc(Cl)cn1` [Compound 363, N-(3-(5-chloropyridin-2-yl)-6-fluoroimidazo[1,2-a]pyridin-2-yl)-3,3-dimethylbutanamide], for which the “Rat MES activity” value in assay [1] (oral) is “++ (++ 4-6 animals protected)”. For the same molecule, in assay [2] (FLIPR assay (Table 3)), the EC50 is below 0.5 µM.
`CC(C)(C(=O)Nc1nc2ccc(C(F)(F)F)nn2c1C1CC1)C(F)(F)F` [Compound 435, N-(3-cyclopropyl-6-(trifluoromethyl)imidazo[1,2-b]pyridazin-2-yl)-3,3,3-trifluoro-2,2-dimethylpropanamide]: the “Rat MES activity” value in assay [1] (oral) was “+++ (+++ 7-8 animals protected)”. Besides, the concentration giving a half-maximal response (EC50) in assay [2] (FLIPR assay (Table 6)) fell in the range of 0.5 to 3 µM.
Turning to `CC(C)(C)CC(=O)Nc1nc2ccc(F)cn2c1-c1ccc(C(F)(F)F)cn1` [Compound 353, N-(6-fluoro-3-(5-(trifluoromethyl)pyridin-2-yl)imidazo[1,2-a]pyridin-2-yl)-3,3-dimethylbutanamide], the “Rat MES activity” value in assay [1] (oral) is listed as “+++ (+++ 7-8 animals protected)”. For the same molecule, the EC50 in assay [2] (FLIPR assay (Table 3)) is below 0.5 µM.
For the molecule `CC(C)(C)CC(=O)Nc1nc2ccc(C(F)(F)F)cn2c1CC1CCCCC1` [Compound 32, N-(3-(cyclohexylmethyl)-6-(trifluoromethyl)imidazo[1,2-a]pyridin-2-yl)-3,3-dimethylbutanamide], the “Rat MES activity” value in assay [1] (oral) was “+ (+ 2-3 animals protected)”. Also, the concentration for a half-maximal effect (EC50) in assay [2] (FLIPR assay, Table 1) is below 0.5 µM.
Take `CC(C)(C)CC(=O)Nc1nc2ccc(F)cn2c1-c1nc2ccccc2s1` [Compound 360, N-(3-(benzo[d]thiazol-2-yl)-6-fluoroimidazo[1,2-a]pyridin-2-yl)-3,3-dimethylbutanamide]: the “Rat MES activity” value in assay [1] (oral) is listed as “+ (+ 2-3 animals protected)”. In addition, the concentration for a half-maximal effect (EC50) in assay [2] (FLIPR assay (Table 3)) was below 0.5 µM.
Take `CC(C)(CC(=O)Nc1nc2ccc(F)cn2c1C1CCC1)C(F)(F)F` [Compound 446, N-(3-cyclobutyl-6-fluoroimidazo[1,2-a]pyridin-2-yl)-4,4,4-trifluoro-3,3-dimethylbutanamide]: the “Rat MES activity” value in assay [1] (oral) was “+++ (+++ 7-8 animals protected)”. Further, the EC50 in assay [2] (FLIPR assay (Table 6)) was below 0.5 µM.
With `CC(C)(C)CC(=O)Nc1nc2ccc(F)cn2c1-c1nccs1` [Compound 371, N-(6-fluoro-3-(thiazol-2-yl)imidazo[1,2-a]pyridin-2-yl)-3,3-dimethyl butanamide], it took a dose of 3.6 mg/kg to reach the 50% effect level in assay [1] (rat MES dose-response) (ED50). Also, the “Rat MES activity” value in assay [1] (oral) is reported as “++ (++ 4-6 animals protected)”. Moreover, the 50% effective concentration (EC50) in assay [2] (FLIPR assay (Table 3)) was 0.5 to 3 µM.
For the molecule `CC(C)(C)CC(=O)Nc1nc2ccc(Cl)nn2c1-c1ccc(C(F)(F)F)cc1` [Compound 271, N-(6-chloro-3-(4-(trifluoromethyl)phenyl)imidazo[1,2-b]pyridazin-2-yl)-3,3-dimethylbutanamide], in assay [1] (oral), the “Rat MES activity” value is recorded as “++ (++ 4-6 animals protected)”. Further, in assay [2] (FLIPR assay, Table 2), the EC50 was below 0.5 µM.
For “N-(3-cyclobutyl-6-(trifluoromethyl)imidazo[1,2-b]pyridazin-2-yl)-4,4,4-trifluoro-3,3-dimethylbutanamide [Compound 438]”, the “Rat MES activity” value in assay [1] (oral) is given as “+++ (+++ 7-8 animals protected)”. In addition, in assay [2] (FLIPR assay (Table 6)), the EC50 was below 0.5 µM.
The molecule `Cc1ccc2nc(NC(=O)CC(C)(C)C)c(-c3cccc(C(F)(F)F)c3)n2n1` [Compound 308, 3,3-dimethyl-N-(6-methyl-3-(3-(trifluoromethyl)phenyl)imidazo[1,2-b]pyridazin-2-yl)butan amide] displayed an ED50 in assay [1] (rat MES dose-response) of 1.6 mg/kg. Also, the “Rat MES activity” value in assay [1] (oral) is reported as “+++ (+++ 7-8 animals protected)”. In assay [2] (FLIPR assay, Table 2), the concentration giving a half-maximal response (EC50) is below 0.5 µM.
In the case of “N-(3-cyclopropyl-6-(trifluoromethyl)imidazo[1,2-b]pyridazin-2-yl)-4,4,4-trifluoro-3,3-dimethylbutanamide [Compound 436]”, the “ED50 (mpk)” value in assay [1] (rat MES dose-response, oral) was determined as 0.7 mpk. For the same molecule, the half-maximal effective concentration (EC50) in assay [2] (FLIPR assay (Table 6)) is 0.5 to 3 µM.
Consider `Cc1ccc2nc(NC(=O)CC(C)C(F)(F)F)c(CC(C)(C)C)n2n1` (stereo not drawn) [Compound 68, 4,4,4-trifluoro-3-methyl-N-(6-methyl-3-neopentylimidazo[1,2-b]pyridazin-2-yl)butanamide], for which the “Rat MES activity” value in assay [1] (oral) is “+++ (+++ 7-8 animals protected)”. In assay [2] (FLIPR assay, Table 1), the concentration for a half-maximal effect (EC50) is below 0.5 µM.
`C[C@H](CC(=O)Nc1nc2ccc(C(F)(F)F)cn2c1C1CC1)C(F)(F)F` [Compound 89, (R)—N-(3-cyclopropyl-6-(trifluoromethyl)imidazo[1,2-a]pyridin-2-yl)-4,4,4-trifluoro-3-methylbutanamide] returned an ED50 in assay [1] (rat MES dose-response) of 5.8 mg/kg. In addition, the “Rat MES activity” value in assay [1] (oral) is recorded as “+++ (+++ 7-8 animals protected)”. For the same molecule, in assay [2] (FLIPR assay, Table 1), the half-maximal effective concentration (EC50) was in the range of 0.5 to 3 µM.
Regarding `CC(C)(C(=O)Nc1nc2ccc(C(F)(F)F)cn2c1C1CCC1)C(F)(F)F` [Compound 428, N-(3-cyclobutyl-6-(trifluoromethyl)imidazo[1,2-a]pyridin-2-yl)-3,3,3-trifluoro-2,2-dimethylpropanamide], in assay [1] (rat MES dose-response), it took a dose of 1.1 mg/kg to reach the 50% effect level (ED50). Further, in assay [1] (oral), the “Rat MES activity” value is on record as “+++ (+++ 7-8 animals protected)”. For the same molecule, the EC50 in assay [2] (FLIPR assay (Table 6)) is below 0.5 µM.
Take `CC(C)(C)Cc1c(NC(=O)Cc2ccccc2)nc2ccc(C(F)(F)F)cn12` [Compound 20, N-(3-neopentyl-6-(trifluoromethyl)imidazo[1,2-a]pyridin-2-yl)-2-phenylacetamide]: the “Rat MES activity” value in assay [1] (oral) is “+ (+ 2-3 animals protected)”. Also, the EC50 in assay [2] (FLIPR assay, Table 1) is below 0.5 µM.
Take `O=C(Nc1nc2ccc(C(F)(F)F)nn2c1C1CC1)c1ccc(F)c(F)c1` [Compound 434, N-(3-cyclopropyl-6-(trifluoromethyl)imidazo[1,2-b]pyridazin-2-yl)-3,4-difluorobenzamide]: in assay [1] (oral), the “Rat MES activity” value is on record as “++ (++ 4-6 animals protected)”. Besides, the half-maximal effective concentration (EC50) in assay [2] (FLIPR assay (Table 6)) is 0.5 to 3 µM.
For the molecule `CC(C)(C)CC(=O)Nc1nc2ccc(F)cn2c1-c1cc(F)cc(C(F)(F)F)c1` [Compound 198, N-(6-fluoro-3-(3-fluoro-5-(trifluoromethyl)phenyl)imidazo[1,2-a]pyridin-2-yl)-3,3-dimethylbutanamide], the “Rat MES activity” value in assay [1] (oral) is “+++ (+++ 7-8 animals protected)”. For the same molecule, in assay [2] (FLIPR assay, Table 2), the EC50 was below 0.5 µM.
Consider `CC(C)(C)CCC(=O)Nc1nc2ccc(C(F)(F)F)cn2c1CC(C)(C)C` [Compound 24, 4,4-dimethyl-N-(3-neopentyl-6-(trifluoromethyl)imidazo[1,2-a]pyridin-2-yl)pentanamide], for which, in assay [1] (oral), the “Rat MES activity” value is given as “+ (+ 2-3 animals protected)”. The EC50 in assay [2] (FLIPR assay, Table 1) is below 0.5 µM.
